The record followed here is publication PMC7863742, “Sensitive Fluorescence Assay for the Detection of Alkaline Phosphatase Based on a Cu^2+-Thiamine System” (Sensors (Basel, Switzerland), 2021).

This assay concerns the target Alkaline phosphatase (ALP). Put plainly: Cu2+-thiamine fluorescence assay of ALP hydrolysis of ascorbic acid 2-phosphate. The format is biochemical.

pIC50: −log10 of the molar value.

The pIC50 is the negative decadic logarithm of the IC50, by convention in mol/L. Lower therefore signals a high IC50. `[O]=[V]([OH])([OH])[OH]` [Na3VO4] showed a negative logarithm of the IC50 (pIC50) of 3.58.
